Test [1] has as its system breast adenocarcinoma (MCF-7). The test can be described thus: in vitro cytotoxicity, MTT assay. The test is classed as cell-based, human. To be noted: at least three independent experiments. On the procedure: (§1) The testing was performed on the following human cancer cell lines: breast adenocarcinoma (MCF-7), osteosarcoma (HOS), lung adenocarcinoma (A549), prostate adenocarcinoma (PC-3), ovarian carcinoma (A2780), cisplatin-resistant ovarian carcinoma (A2780R) and colorectal adenocarcinoma (Caco-2) obtained from ATCC collection of cell lines and cultivated according to producer’s instructions.
(In general: Tetrazolium assays rely on reduction of a dye to a coloured formazan, in cell work by metabolically active cells.)

The test system of test [2] is cisplatin-resistant ovarian carcinoma (A2780R). Nature of the test: in vitro cytotoxicity, MTT assay. The test is classed as cell-based, human. To be noted: mean ± SD, at least three independent experiments. On the procedure:
as §1

Test [3] relates to lung adenocarcinoma (A549). Nature of the test: in vitro cytotoxicity, MTT assay. The test is classed as cell-based, human. As to conditions: at least three independent experiments. How it is done: as §1
Test [4] concerns ovarian carcinoma (A2780). Nature of the test: in vitro cytotoxicity, MTT assay. The test is classed as cell-based, human. As to conditions: at least three independent experiments. How it is done:
as §1

The test system of test [5] is prostate adenocarcinoma (PC-3). Nature of the test: in vitro cytotoxicity, MTT assay. The format is cell-based, human. To be noted: mean ± SD, at least three independent experiments. How it is done:
as §1

The subject of test [6] is IκB and MAPKs p38, ERK1/2, JNK in THP-1 macrophages. Nature of the test: IκB and MAPK signalling pathways, Western blot. The format is cell-based, human. As to conditions: 200 nM, 1 h pre-treatment, 30 min after LPS. How it is done: Macrophages derived from THP-1 cells were used to evaluate the influence of tested complexes on the signalling pathway leading to activation of transcription factors NF-κB and AP-1. To differentiate THP-1 monocytes into macrophages, the cells were stimulated with phorbol myristate acetate (PMA), as described above. The level of inhibitor of NF-κB (IĸB) and phosphorylation (activation) of mitogen-activated protein kinases (MAPKs) p38, ERK1/2, and JNK was determined in a way similar to that described previously. Above mentioned proteins were detected by the following primary antibodies: anti-IĸB-α at the dilution 1:500 (Cell Signalling, Danvers, MA, USA; products No. 4814), anti-phospho-SAPK/JNK at the dilution 1:500 (Cell Signalling; products No. 4668), anti-p44/42 MAPK (ERK1/2) at the dilution 1:1000 (Cell Signalling; products No. 4695), anti-phospho-p44/42 MAPK (ERK1/2) at the dilution 1:1000 (Cell Signalling; products No. 4370), anti-p38 MAPK at the dilution 1:1000 (Cell Signalling; products No. 9212), anti-phospho-p38 MAPK antibodies at the dilution 1:1000 (Cell Signalling; products No. 4511), anti-SAPK/JNK at a dilution of 1:250 (Sigma-Aldrich, product No. SAB4200176), and anti-β-actin at a dilution of 1:5000 (Abcam, Cambridge, UK; product No. 8226). […] The amount of bound secondary antibody was determined using ECL reagent (Bio-Rad, Hercules, CA, USA). […]
Background: Immunoblotting shows a protein as a band on a membrane.

The test system of another test is A2780 cells. Nature of the test: mitochondrial membrane potential, MITO-ID flow cytometry. As to conditions: A2780, 15 µM, 24 h; compared with cisplatin. The test is classed as cell-based, human. How it is done:
After 24 h, the cells were washed once with PBS (0.1 M, pH 7.4), detached with trypsin (0.25% in ethylenediaminetetraacetic acid (EDTA), Sigma-Aldrich), and resuspended in 500 µL of culture medium. Then the staining was performed using MITO-ID® Membrane potential detection kit (Enzo Life Sciences, Farmingdale, NY, USA) according to the manufacturer’s protocol and samples were measured in three independent experiments, each time in duplicates on BD FACSVerse flow cytometer (Becton Dickinson, Franklin Lakes, NJ, USA), while at least 10^4 events were recorded for each sample.
On the technique in general: A flow cytometer gives signals particle by particle.

The test system of test [7] is caspases 3/7 in A2780 cells. Nature of the test: activation of caspases 3/7, flow cytometry. As to conditions: A2780, 15 µM, 24 h. The format is cell-based, human. How it is done: Both methods were performed according to the manufacturers’ protocols with 1 modification in the caspase induction assay, which was the use of the CellEvent^TM Caspase-3/7 Green Detection Reagent only for detection of Caspase-3/7 activation. […] After 24 h, the cells were washed once with PBS (0.1 M, pH 7.4), detached with trypsin (0.25% in ethylenediaminetetraacetic acid (EDTA), Sigma-Aldrich), resuspended in 500 µL of the culture medium and divided into 2 separate tubes, the first for apoptosis assay and the second one for caspase activation analysis. After staining with appropriate dyes, samples were analyzed on a BD FACSVerse flow cytometer (Becton Dickinson, Franklin Lakes, NJ, USA) in 3 separate experiments, while at least 10^4 events were recorded for each sample prepared in duplicate.

The test system of test [8] is NF-κB in differentiated THP-1 macrophages. The test can be described thus: immunocytochemical analysis of NF-κB nuclear translocation. The format is cell-based, human. To be noted: 200 nM, 1 h pre-treatment, 1 h LPS (1 µg/mL), fluorescence microscopy. On the procedure:
To differentiate the THP-1 monocytes to macrophages, phorbol myristate acetate (PMA) was used at the final concentration of 50 ng/mL. The cells were split into 8-well cell culture glass slides (SPL, Gyeonggi-do, South Korea) at a concentration of 3 × 10^5 cells/300 µL/well. Monocytes were differentiated by PMA treatment for 24 h and then the medium was changed. Macrophages were washed with PBS, transferred into a serum-free medium and incubated for 2 h. After 1 h pre-treatment with 5 (200 nM), prednisone (200 nM) or 0.1% DMF (v/v) solution used as a control, NF-κB nuclear translocation was triggered by the addition of LPS (1 µg/mL). The macrophages were washed with PBS and fixed with 4% formaldehyde 1 h later. Permeabilization was performed using 0.1% v/v Triton X-100 (Merck). After blocking with 3% bovine serum albumin (BSA; Merck, Darmstadt, Germany) dissolved in PBS, the primary antibody anti-NF-κB p65 (Abcam, Cambridge, UK, product No. ab16502) was added at a concentration of 2.5 µg/mL and incubated at 4 °C overnight. Then a secondary anti-rabbit antibody labelled by Alexa Fluor 488® (Cell Signalling, Danvers, MA, USA) product No. 4412, dilution 1:1500) was applied in dark at 4 °C for 1 h. […] The NF-κB migration activity was evaluated by fluorescent microscopy after the nail polish cured using the fluorescence microscope IX73 (Olympus, Tokyo, Japan).

Test [9] concerns ACHN, NCI-H23, PC-3, MDA-MB-231, LOX-IMVI, colon carcinoma cell lines. Also noted: method as in PMID 17662606. As to conditions: 24 h of incubation, range over cell lines; cited from earlier work.

For orientation: IC50 means the concentration that gives 50% inhibition. A lower IC50 goes with higher potency. One may read the GI50 as the concentration giving 50% growth inhibition.

As to `CC(C)=CCc1c2c(c3occ(-c4ccc(O)c(O)c4)c(=O)c3c1[O-])C=CC(C)(C)O2.Cc1ccnc(-c2cc(C)ccn2)c1.O.O.O=[N+]([O-])[O-].[Cu+2]` [Complex 2, (3-(3,4-dihydroxyphenyl)-8,8-dimethyl-6-(3-methylbut-2-en-1-yl)-4H,8H-benzo[1,2-b:3,4-b′]dipyran-4-one-5-olato-κ^2O4:O5)(4,4′-dimethyl-2,2′-bipyridine–κ^2N:N)copper(II) nitrate dihydrate], the IC50 was 29.6 ± 2 µM in [1] (mean ± SD); 5.3 ± 1.1 µM in test [2]; 20.9 ± 0.9 µM in [3] (mean ± SD); 5.4 ± 2.4 µM in test [4] (mean ± SD); more than 50 µM in test [5]. In addition, the “IκB and MAPK intracellular signalization” value in test [6] is recorded as “did not affect the intracellular signalization”. Moreover, the “damage of mitochondrial function (membrane potential)” value (“damage of mitochondrial function” below) in the test on A2780 cells is “strong ability”.
On to `CC(C)=CCc1c2c(c3occ(-c4ccc(O)c(O)c4)c(=O)c3c1[O-])C=CC(C)(C)O2.CO.O=[N+]([O-])[O-].[Cu+2].c1ccc(-c2ccnc3c2ccc2c(-c4ccccc4)ccnc23)cc1` [Complex 4, (3-(3,4-dihydroxyphenyl)-8,8-dimethyl-6-(3-methylbut-2-en-1-yl)-4H,8H-benzo[1,2-b:3,4-b′]dipyran-4-one-5-olato-κ^2O4:O5)(4,7-diphenyl-1,10-phenanthroline–κ^2N:N)copper(II) nitrate methanol solvate], for which the IC50 in [1] (mean ± SD) was determined as 16 ± 1.1 µM; in [2] it was 6.6 ± 2.3 µM; in [3] (mean ± SD), 8.7 ± 0.8 µM; in [4] (mean ± SD), 12.8 ± 3.1 µM; in test [5], 13 ± 1.1 µM. Moreover, the “activation of executioner caspases 3/7” value in test [7] was “significantly increase the antiproliferative effects over the free pomiferin and reference drug cisplatin”. Besides, the NF-κB nuclear translocation entry in [8] is “blocked the nuclear translocation”. Also, in the test with A2780 cells, the “damage of mitochondrial function” value is “strong ability”.
On to `CC(C)=CCc1c2c(c3occ(-c4ccc(O)c(O)c4)c(=O)c3c1O)C=CC(C)(C)O2` [pomiferin, 3-(3,4-dihydroxyphenyl)-5-hydroxy-8,8-dimethyl-6-(3-methylbut-2-ene-1-yl)-4H,8H-benzo[1,2-b:3,4-b′]dipyran-4-one], for which the IC50 turned out to be 22 ± 0.1 µM in [1] (Homo sapiens, MCF7, mean ± SD); 4.3 ± 1.3 µM in [2] (Homo sapiens); 21.2 ± 1.4 µM in [3] (Homo sapiens, A549, mean ± SD); 8.4 ± 2 µM in test [4] (Homo sapiens, A2780, mean ± SD); 18.5 ± 0.7 µM in test [5] (Homo sapiens). In addition, the “damage of mitochondrial function” value in the test on A2780 cells is recorded as “strong ability”. Besides, the 50% growth inhibitory concentration (GI50) in [9] was 1.32 to 13.3 µM.
Regarding “(3-(3,4-dihydroxyphenyl)-8,8-dimethyl-6-(3-methylbut-2-en-1-yl)-4H,8H-benzo[1,2-b:3,4-b′]dipyran-4-one-5-olato-κ^2O4:O5)(dipyrido[3,2-a:2′,3′-c]phenazine–κ^2N4:N5)copper(II) nitrate methanol solvate [Complex 5]”, the IC50 in test [1] (mean ± SD) came to 3 ± 0.5 µM; in test [2], 2.2 ± 0.5 µM; in [3] (mean ± SD), 3.1 ± 0.2 µM; in test [4] (mean ± SD) it was 2.5 ± 0.9 µM; in [5], 3.3 ± 0.1 µM. For the same molecule, the NF-κB nuclear translocation result in test [8] was “the NF-κB levels in the nucleus decreased”. Moreover, the “IκB and MAPK intracellular signalization” value in test [6] is on record as “did not affect the intracellular signalization”.

The values are drawn from article PMC8305652, “Copper(II) Complexes Containing Natural Flavonoid Pomiferin Show Considerable In Vitro Cytotoxicity and Anti-inflammatory Effects” (International Journal of Molecular Sciences, 2021).
